Read-outs that look alike come from different tables or passages of the source.
Assays:
[1] = target: T1, AChE from bovine erythrocytes (Bos taurus, UniProt P23795); test: Acetylcholinesterase (AChE) inhibition (from bovine erythrocytes), Ellman method at 30° C., Digiscan 340T; type: biochemical
T1 construct: 0.02 units AChE (Sigma Chemical Co. from bovine erythrocytes); purchased Sigma Chemical Co; host or cells: bovine erythrocytes
T1 sequence (P23795 31-614 isoform P23795-2 limits assumed): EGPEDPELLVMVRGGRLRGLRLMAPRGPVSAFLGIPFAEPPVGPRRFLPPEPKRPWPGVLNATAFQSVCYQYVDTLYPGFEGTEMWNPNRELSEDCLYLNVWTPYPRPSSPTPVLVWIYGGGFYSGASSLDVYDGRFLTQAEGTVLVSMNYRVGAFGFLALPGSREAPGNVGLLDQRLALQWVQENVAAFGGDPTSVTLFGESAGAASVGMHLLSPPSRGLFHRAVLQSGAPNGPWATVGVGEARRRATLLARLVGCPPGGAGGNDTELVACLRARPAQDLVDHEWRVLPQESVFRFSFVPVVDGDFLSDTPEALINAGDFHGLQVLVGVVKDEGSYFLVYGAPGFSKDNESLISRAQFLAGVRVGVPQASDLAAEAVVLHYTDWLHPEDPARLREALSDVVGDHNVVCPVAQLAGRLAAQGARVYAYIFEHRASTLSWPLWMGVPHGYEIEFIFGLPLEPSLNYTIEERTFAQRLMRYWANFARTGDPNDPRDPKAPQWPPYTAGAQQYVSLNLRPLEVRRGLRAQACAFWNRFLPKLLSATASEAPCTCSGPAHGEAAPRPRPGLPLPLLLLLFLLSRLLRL
Procedure: Acetylcholinesterase (AChE) Inhibition (from Bovine Erythrocytes)
AChE inhibitory activity was evaluated at 30° C. by the colorimetric method reported by Ellman [Ellman, G. L.; Courtney, K. D.; Andres, B.; Featherstone, R. M. Biochem. Pharmacol. 1961, 7, 88-95]. The assay solution consisted of 0.1 M phosphate buffer pH 8, 0.3 mM 5,5′-dithiobis (2-nitrobenzoic acid) (DTNB, Ellman's reagent), 0.02 units AChE (Sigma Chemical Co. from bovine erythrocytes), and 0.5 mM acetylthiocholine iodide as the substrate of the enzymatic reaction. The compounds tested were added to the assay solution and preincubated with the enzyme for 5 min at 30° C. After that period, the substrate was added. The absorbance changes at 405 nm were recorded for 5 min with a microplate reader Digiscan 340T, the reaction rates were compared, and the percent inhibition due to the presence of test compounds was calculated. The reaction rate was calculated with, at least, triplicate measurements, and the percent inhibition due to the presence of test compound was calculated relative to the compound-free control.

[2] = target: T2, BuChE from human serum (Homo sapiens, UniProt P06276); test: Butyrylcholinesterase (BuChE) inhibition (from human serum); type: biochemical
T2 construct: The assay solution consisted of 0.01 units BuChE from human serum; from tissue; host or cells: human serum
T2 sequence (P06276 29-602): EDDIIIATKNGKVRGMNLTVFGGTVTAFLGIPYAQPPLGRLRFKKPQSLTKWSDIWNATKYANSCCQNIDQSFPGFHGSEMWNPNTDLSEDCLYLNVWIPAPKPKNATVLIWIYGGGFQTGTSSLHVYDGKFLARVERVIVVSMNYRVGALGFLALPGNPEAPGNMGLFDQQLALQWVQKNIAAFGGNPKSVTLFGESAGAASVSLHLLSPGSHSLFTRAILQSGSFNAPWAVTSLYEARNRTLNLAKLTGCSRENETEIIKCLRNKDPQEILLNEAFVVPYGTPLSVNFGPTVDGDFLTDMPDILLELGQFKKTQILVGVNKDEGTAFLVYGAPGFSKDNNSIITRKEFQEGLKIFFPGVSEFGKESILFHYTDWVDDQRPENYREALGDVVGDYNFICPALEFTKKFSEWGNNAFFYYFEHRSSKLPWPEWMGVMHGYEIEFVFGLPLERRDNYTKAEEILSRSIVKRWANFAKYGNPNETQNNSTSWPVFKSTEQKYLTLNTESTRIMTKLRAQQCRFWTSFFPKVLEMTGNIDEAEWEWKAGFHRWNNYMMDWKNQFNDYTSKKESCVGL
Procedure: Butyrylcholinetersae (BuChE) Inhibition (from Human Serum)
BuChE inhibitory activity was evaluated at 30° C. by the colorimetric method reported by Ellman (Ellman, G. L.; Courtney, K. D.; Andres, B.; Featherstone, R. M. Biochem. Pharmacol. 1961, 7, 88-95]. The assay solution consisted of 0.01 units BuChE from human serum, 0.1 M sodium phosphate buffer pH 8, 0.3 mM 5,5′-dithiobis (2-nitrobenzoic acid) (DTNB, Ellman's reagent), and 0.5 mM butylthiocholine iodide as the substrate of the enzymatic reaction. Enzyme activity was determined by measuring the absorbance at 405 nm during 5 minutes with a microplate reader Digiscan 340T. The tested compounds were preincubated with the enzyme for 10 minutes at 30° C. The reaction rate was calculated with, at least, triplicate measurements.

[3] = test system: human neuroblastoma cell line SH—SY5Y; test: Toxicity measurement (LDH) in SH-SY5Y cells; type: cell-based; details: 24 hours exposure
Procedure: The cytotoxicity effect of the molecules was tested in the human neuroblastoma cell line SH—SY5Y. These cells were cultured in 96-well plates in minimum essential medium, Han's F12 medium, supplemented with 10% fetal bovine serum, 1% glutamine and 1% penicillin/streptomycin, and grown in. a 5% CO2 humidified incubator at 37° C.
The cells were plated at 10^4 cells for each well, at least, 48 hours before the toxicity measure. Cells were exposed for 24 hours to the compounds at different concentrations (from 10^−5 to 10^−9), quantitative assessment of cell death was made by measurement of the intracellular enzyme lactate dehydrogenase (LDH) (citotoxicity detection kit, Roche). The cuantity of LDH was evaluated in a microplate reader Anthos 2010, at 492 and 620 nm. Controls were taken as 100% viability.

[4] = target: AChE peripheral site (Homo sapiens, UniProt P22303); test: Propidium competition (fluorescence); type: binding; details: 20 μM propidium iodide, AChE incubated at least 6 hours with compound
AChE peripheral site, sequence (P22303 32-614): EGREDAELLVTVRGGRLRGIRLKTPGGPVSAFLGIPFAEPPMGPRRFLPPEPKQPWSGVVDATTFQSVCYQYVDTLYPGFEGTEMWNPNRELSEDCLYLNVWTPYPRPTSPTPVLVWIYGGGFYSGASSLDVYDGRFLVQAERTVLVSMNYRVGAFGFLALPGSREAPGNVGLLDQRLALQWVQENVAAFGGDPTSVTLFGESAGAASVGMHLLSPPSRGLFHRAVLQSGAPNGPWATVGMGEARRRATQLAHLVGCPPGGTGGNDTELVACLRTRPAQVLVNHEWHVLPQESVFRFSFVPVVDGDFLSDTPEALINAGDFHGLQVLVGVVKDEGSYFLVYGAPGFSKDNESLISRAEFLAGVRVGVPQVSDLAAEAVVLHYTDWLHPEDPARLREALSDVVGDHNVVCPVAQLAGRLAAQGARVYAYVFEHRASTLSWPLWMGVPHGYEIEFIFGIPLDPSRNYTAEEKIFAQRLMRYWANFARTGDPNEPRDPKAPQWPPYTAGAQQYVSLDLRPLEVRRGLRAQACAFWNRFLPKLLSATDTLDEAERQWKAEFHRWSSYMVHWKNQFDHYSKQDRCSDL
Procedure: Fluorescence was measured in a Fluostar optima plate reader (BMG). Measurements were carried out in 100 μl solution volume, in 96-well plates. The buffer used was 1 mM Tris/HCl, pH 8.0. […] AChE was incubated, at least 6 hours, with the molecules at different concentrations. 20 μM propidium iodide was added 10 min before fluorescence measurement.

[5] = target: T3, β-amyloid-AChE complex (Homo sapiens, UniProt P22303); test: Inhibition of β-amyloid aggregation (AChE-Aβ complex, Congo Red binding); type: biochemical; details: propidium iodide 50 μM, Aβ1-40 0.1 mM, Aβ-AChE 200:1, 48 hours
T3 construct: purchased Sigma-Aldrich
T3 sequence (P22303 32-614, one chain of several): as the sequence (P22303 32-614) above
Procedure: Inhibition of β-Amyloid Aggregation:
Stock solutions of Aβ1-40 at 3.5 mM were prepared in DMSO. The amount of peptide used in the assays was 0.1 mM. Human recombinant AChE (Sigma-Aldrich) was used at a molar ratio Aβ-AChE 200:1. For the aggregation studies the peptide was mixed with the appropriate amount of AChE in PBS pH 7.4 and stirred for 48 hours in -a microtiter plate at room temperature. The fibrils obtained were characterized by Congo Red (CR) binding.
For the inhibition of β-amyloid aggregation, the compounds tested were used at the IC50 defined in the previous paragraph of the biological evaluation. Propidium iodide 50 μM for comparison.

[6] = test system: SH—SY5Y cells exposed to β-amyloid fragment 25-35; test: Effects on β-amyloid toxicity (fragment 25-35, LDH viability); type: cell-based, human; details: 1 hour pretreatment, Aβ 25-35 at 200 μM, 24 hours
Procedure: Effects on β-Amiloid Toxicity
We have tested if some of these molecules interfere with amyloid peptide toxicity. Cells SH—SY5Y were cultured in 96-well plates as toxicity experiments. Cells were pretreated for 1 hour with the compounds at different concentrations (from 10^−5 to 10^−9), immediately neuronal death is induced adding synthetic peptide β-amyloid, fragment 25-35 (A25-35) at 200 μM. 24 hours later cell viability was assessed with the LDH assay; results are reported relative to untreated wells.

[7] = target: T4, AChE from human erythrocytes (Homo sapiens, UniProt P22303); test: AChE inhibition (from human erythrocytes), Ellman method; type: biochemical; details: 10 min preincubation at 30° C., 400 μM acetylthiocholine iodide, pH 8
T4 construct: 0.02 unit/ml AChE (Sigma Chemical Co. from human erythrocytes); purchased Sigma Chemical Co; host or cells: human erythrocytes
T4 sequence (P22303 32-617 isoform P22303-2 limits assumed): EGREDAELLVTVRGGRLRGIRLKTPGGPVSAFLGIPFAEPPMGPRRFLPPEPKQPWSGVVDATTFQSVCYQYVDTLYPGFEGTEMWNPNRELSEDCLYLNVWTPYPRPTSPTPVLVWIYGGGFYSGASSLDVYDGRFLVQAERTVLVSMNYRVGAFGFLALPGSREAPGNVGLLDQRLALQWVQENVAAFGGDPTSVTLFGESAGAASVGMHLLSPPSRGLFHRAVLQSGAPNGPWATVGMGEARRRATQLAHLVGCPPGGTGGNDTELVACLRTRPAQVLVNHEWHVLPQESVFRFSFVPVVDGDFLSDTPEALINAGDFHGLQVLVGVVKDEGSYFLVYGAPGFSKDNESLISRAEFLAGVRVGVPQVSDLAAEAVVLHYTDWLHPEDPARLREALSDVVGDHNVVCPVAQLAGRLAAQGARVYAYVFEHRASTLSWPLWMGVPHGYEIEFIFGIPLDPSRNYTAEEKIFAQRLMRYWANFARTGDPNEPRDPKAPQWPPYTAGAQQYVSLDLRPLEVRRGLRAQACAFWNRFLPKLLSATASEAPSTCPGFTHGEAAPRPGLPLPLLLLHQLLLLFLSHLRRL
Procedure: AChE Inhibition (from Human Erythrocytes)
The method of Ellman et al. (Ellman, G. L.; Courtney, K. D.; Andres, B.; Featherstone, R. M. Biochem. Pharmacol. 1961, 7, 88-95) was followed. The assay solution consisted of 0.1 M phosphate buffer pH 8, 200 μM 5,5′-dithiobis(2-nitrobenzoic acid) (DTNB, Ellan's reagent), 0.02 unit/ml AChE (Sigma Chemical Co. from human erythrocytes), and 400 μM acetylthiocholine iodide as the substrate of the enzymatic reaction. The compounds tested were added to the assay solution and pre incubated with the enzyme for 10 min at 30° C. After that period, the substrate was added. The absorbance changes at 412 nm were recorded for 5 min with a Perkin-Elmer 550 SE UV/VIS spectrometer, the reaction rates were compared, and the percent inhibition due to the presence of test compounds was calculated.

[8] = bovine erythrocytes AChE, 30° C., 5 min preincubation, read-out: IC50 AchE
[9] = human serum BuChE, 30° C., 10 min preincubation, read-out: IC50 BuChE

SMILES	IC50 [1, 8]	IC50 [2, 9]	Toxicity [3]	Propidium competition [4]	reduction of the β-amyloid-AChE complex aggregation [5]	inhibition of Aβ(25-35) toxicity [6]	IC50 [7]	IC50 [1]	IC50 [2]
O=C1c2ccccc2C(=O)N1CCCCCCCNc1c2c(nc3ccccc13)CCCC2 [Compound 4, 2-[7-(1,2,3,4-Tetrahydro-acridin-9-ylamino)-heptyl]-isoindole-1,3-dione]	3000 nM	10 nM	>100 µM	10 µM					
CN(CCCNC(=O)CN1C(=O)c2ccccc2C1=O)CCCNc1c2c(nc3cc(Cl)ccc13)CCCC2 [Compound 11, N-(3-{[3-(6-Chloro-1,2,3,4-tetrahydro-acridin-9-ylamino)-propyl]-methyl-amino}-propyl)-2-(1,3-dioxo-1,3-dihydro-isoindol-2-yl)-acetamide]	3 nM	75 nM	>100 µM	10 µM					
O=C1c2ccccc2C(=O)N1CCCCCCCCCNc1c2ccccc2nc2ccccc12 [Compound 9, 2-[9-(Acridin-9-ylamino)-nonyl]-isoindole-1,3-dione]	2 nM	90 nM	>100 µM	1 µM					
O=C(CN1C(=O)c2ccccc2C1=O)NCCCCCCCNc1c2c(nc3cc(Cl)ccc13)CCCC2 [Compound 10, N-[7-(6-Chloro-1,2,3,4-tetrahydro-acridin-9-ylamino)-heptyl]-2-(1,3-dioxo-1,3-dihydro-isoindol-2-yl)-acetamide]	20 nM	650 nM	>100 µM	10 µM					
CC[N+](C)(CC)CCC[n+]1c(-c2ccccc2)c2cc(N)ccc2c2ccc(N)cc21 [propidium, Propidium iodide, reference compound]					18.1%				
Clc1ccc2c(NCCCCCCCNc3c4ccccc4nc4ccccc34)c3c(nc2c1)CCCC3 [Compound 23, N-Acridin-9-yl-N′-(6-chloro-1,2,3,4-tetrahydro-acridin-9-yl)-heptane-1,7-diamine]	0.4 nM	20 nM	0.5 µM	1 µM		1 µM			
CCn1c(=NCCCCCCCCNc2c3c(nc4ccccc24)CCCC3)sn(C(C)C)c1=O [Compound 17, 4-Ethyl-2-isopropyl-5-[8-(1,2,3,4-tetrahydro-acridin-9-ylamino)-octylimino]-[1,2,4]thiadiazolidin-3-one]	200 nM	10 nM	>100 µM	0.1 µM					
O=C1c2ccccc2C(=O)N1CCCCCCCCNc1c2ccccc2nc2ccccc12 [Compound 8, 2-[8-(Acridin-9-ylamino)-octyl]-isoindole-1,3-dione]	1000 nM	1000 nM	100 µM	>100 µM					
COc1cc2c(cc1OC)C(=O)C(CNCCCCCCNc1c3c(nc4ccccc14)CCCC3)C2 (stereo not shown) [Compound 2, 5,6-Dimethoxy-2-{[6-(1,2,3,4-tetrahydro-acridin-9-ylamino)-hexylamino]-methyl}-indan-1-one]							100 nM		
CCn1c(=NCCCCCCNc2c3c(nc4ccccc24)CCCC3)sn(C(C)C)c1=O [Compound 18, 4-Ethyl-2-isopropyl-5-[6-(1,2,3,4-tetrahydro-acridin-9-ylamino)-hexyl-imino]-[1,2,4]thiadiazolidin-3-one]			>10 µM	>100 µM				2250 nM	1000 nM
O=C(CN1C(=O)c2ccccc2C1=O)NCCCCCCNc1c2c(nc3cc(Cl)ccc13)CCCC2 [Compound 12, N-[6-(6-Chloro-1,2,3,4-tetrahydro-acridin-9-ylamino)-hexyl]-2-(1,3-dioxo-1,3-dihydro-isoindol-2-yl)-acetamide]	10 nM	200 nM	>100 µM	100 µM					
CN(CCCNc1c2c(nc3cc(Cl)ccc13)CCCC2)CCCNc1c2c(nc3cc(Cl)ccc13)CCCC2 [Compound 19]	0.1 nM	1.5 nM	10 µM	10 µM					
Clc1ccc2c(NCCCCCCCCNc3c4ccccc4nc4ccccc34)c3c(nc2c1)CCCC3 [Compound 24, N-Acridin-9-yl-N′-(6-chloro-1,2,3,4-tetrahydro-acridin-9-yl)-octane-1,8-diamine]	1 nM	35 nM	5 µM	10 µM					
O=C1c2ccccc2C(=O)N1CCCCCCCCNc1c2c(nc3ccccc13)CCCC2 [Compound 5, 2-[8-(1,2,3,4-Tetrahydro-acridin-9-ylamino)-octyl]-isoindole-1,3-dione]	90 nM	30 nM	5 µM	>100 µM					
O=C1c2ccccc2C(=O)N1CCCCCCNc1c2ccccc2nc2ccccc12 [Compound 6, 2-[6-(Acridin-9-ylamino)-hexyl]-isoindole-1,3-dione]	900 nM	8 nM	>100 µM	10 µM					

Source: patent publication US20060142323A1, “Dual binding site acetylcholinesterase inhibitors for the treatment of alzheimer's disease” (priority 2002, published 2006)
